What was measured:
[1] = biological target: T1, DM EGFR (DoubleMutantEGFR, L828R/T790M) (Homo sapiens, UniProt P00533, L858R/T790M); experiment: Inhibition of DM EGFR kinase activity (ADP-Glo); type: biochemical
T1 construct: purchased SignalChem
Method in brief: (§1)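 Recombinant WT or double-mutant EGFR was incubated with a solution of 0.5 mg/mL peptide substrate and 50 μM ATP for 180 minutes at 37° C. Kinase activity was detected by ADP-Glo luminescence. IC50 values came from a four-parameter logistic fit.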

WT EGFR (Wild-Type EGFR) = biological target: T2, WT EGFR (Wild-Type EGFR) (Homo sapiens, UniProt P00533); experiment: Inhibition of WT EGFR kinase activity (ADP-Glo); type: biochemical
T2 construct: purchased SignalChem
Method in brief: as §1

HepG2 cells = experiment: General cytotoxicity on HepG2 cells; type: cell-based; conditions: therapeutic index, CC50 HepG2 / IC50 H1975
Method in brief: (§2)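 HepG2 cells seeded at 2*10^4 cells per well and compounds added in DMEM with 2% FBS for 72 h at 37 °C. Viability read with Alamar Blue and CC50 derived as for IC50. Therapeutic index taken as HepG2 CC50 over H1975 IC50.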

[2] = General cytotoxicity on HepG2 cells; type: cell-based; conditions: human; general cytotoxicity, HepG2 cells, 72 hours, average of several tests
Method in brief: as §2

[3] = Permeability through monolayer of Caco-2 cells; type: in vitro ADME; conditions: human, Caco-2 monolayer
From the text: 2) Assessment of permeability through monolayer of Caco-2 cells.
Assessment of permeability through the monolayer of Caco-2 cells allows to evaluate the ability of the candidate compounds to penetrate through biological membranes by active and passive transport.
Caco-2, the cells of the intestinal epithelium, had been cultured in transwell plate inserts with the filters (with pores of 0.4 μm, BD Falcon with High Density) for 21 days, and then the integrity of the monolayer were estimated with Lucifer Yellow (Sigma-Aldrich, USA) by standard protocol. When setting the A→B transfer (“intestinal lumen”—“blood stream” transfer), solutions of test substances were added in a buffer with pH 6.5 (HBSS, 10 mM HEPES, 15 mM glucose solution) with the concentration of 10 μM into the upper chamber; the lower chamber was filled with a buffer with pH 7.4 (HBSS, 10 mM HEPES, 15 mM Glucose, 1% BSA). When setting B→A transfer (“blood stream”—“intestinal lumen” transfer), the upper chamber was filled with the buffer with pH 6.5, and solutions of the test substances were added in the buffer with pH 7.4 at the concentration of 10 μM in the lower chamber. Propranolol was used as a control substance (as it has high permeability).
After incubating for 2 h at 37° C. under 5% CO2, the amounts of test substances were determined in the upper and lower chambers by HPLC using Agilent1200 chromatograph (Agilent, USA) with preliminary protein precipitation with acetonitrile. We used gradient elution (1 mL/min flow rate). We determined the areas of peaks corresponding to the compounds. On the basis of peak areas in the calibration standards we determined the concentration of compound in the initial solution and in the samples from the wells of the upper and lower chambers. Papp, permeability through the cell layer, was calculated using the following formula:
Papp=(C(t)*V)/(C(0)*t*Area), wherein
The value was calculated with the following formula:
efflux=Papp B-A/Papp A-B, wherein • Papp A-B—the volume of permeability in A→B test; • Papp B-A—he volume of permeability in B→A test.

IC50 ([1]; inhibition of kinase activity, EGFR DM (L828R/T790M)): 0.89 nM | SI, IC50(WT)/IC50(DM) ([1]; selectivity index, kinase EGFR WT vs EGFR DM): 24.30 | IC50 (WT EGFR (Wild-Type EGFR)): 21.6 nM | Papp A→B at 2 h, 10 µM ([3]; A→B, 10 μM, pH 6.5 upper / pH 7.4 lower, 2 h at 37° C.): 1.87 ×10⁻⁶ cm/s | efflux ratio at 2 h, 10 µM ([3]; Papp B-A/Papp A-B): 0.87
SMILES: C=CC(=O)Nc1cc(Nc2nccc(C(=O)c3ccc(N4CCC(N)CC4)cc3)n2)c(OC)cc1N(C)CCN(C)C [EGFR_3365_121, N-(5-((4-(4-(4-aminopiperidin-1-yl)benzoyl)pyrimidin-2-yl)amino)-2-((2-(dimethylamino)ethyl)(methyl)amino)-4-methoxyphenyl)acrylamide]
TI, CC50/IC50 (HepG2 cells): 17832 | CC50 at 72 h [2]: 75100 nM

Reference: patent US20200339544A1 (JOINT STOCK COMPANY "BIOCAD", priority 2017, published 2020)
